Measurements from ChEMBL document CHEMBL6109072, “Discovery of highly potent dual GSPT1/BRD4 degraders with anti-AML activity” (Eur J Med Chem, 2025).
The source made the active and inactive calls. The rule behind the calls is not given here.

Key:
[1] = tested on: MOLM-13; assay: Antiproliferative activity against human MOLM-13 cells incubated for 3 days by CCK8 assay; format: functional, cell-based; conditions: for IC50: MOLM-13, 72 h
[2] = tested on: MOLM-13; assay: Antiproliferative activity against human MOLM-13 cells assessed as cell viability at 0.1 uM incubated for 3 days by CCK8 assay relative to control; format: functional; conditions: MOLM-13, 72 h, time 3 day, read-out: Activity
[3] = tested on: OCI-AML-3; assay: Antiproliferative activity against human OCI-AML-3 cells incubated for 3 days by CCK8 assay; format: functional, cell-based
[4] = tested on: Raji; assay: Antiproliferative activity against human Raji cells incubated for 3 days by CCK8 assay; format: functional, cell-based; conditions: 72 h
[5] = tested on: KARPAS-299; assay: Antiproliferative activity against human KARPAS-299 cells incubated for 3 days by CCK8 assay; format: functional, cell-based
[6] = target: T1, Protein cereblon/Bromodomain-containing protein 4 (Homo sapiens, UniProt O60885+Q96SW2); assay: PROTAC activity at CRBN/BRD4 in human MOLM-13 cells assessed as BRD4 degradation at 1 uM incubated for 24 hrs by Western blot analysis; format: cell-based
T1 sequence (Q96SW2 whole entry, looked up, other chains not shown): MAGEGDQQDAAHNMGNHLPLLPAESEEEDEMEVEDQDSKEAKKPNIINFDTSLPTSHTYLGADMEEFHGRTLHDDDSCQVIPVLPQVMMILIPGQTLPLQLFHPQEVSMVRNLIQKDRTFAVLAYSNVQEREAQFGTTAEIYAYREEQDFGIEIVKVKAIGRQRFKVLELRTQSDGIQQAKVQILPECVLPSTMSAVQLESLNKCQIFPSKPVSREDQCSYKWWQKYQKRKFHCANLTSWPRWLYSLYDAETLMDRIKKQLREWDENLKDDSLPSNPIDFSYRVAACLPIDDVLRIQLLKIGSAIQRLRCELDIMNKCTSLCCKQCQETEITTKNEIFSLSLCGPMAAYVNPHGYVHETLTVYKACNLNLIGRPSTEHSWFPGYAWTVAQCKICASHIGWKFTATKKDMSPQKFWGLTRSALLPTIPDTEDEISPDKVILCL

[7] = tested on: NB-4; assay: Antiproliferative activity against human NB4 cells incubated for 3 days by CCK8 assay; format: functional, cell-based; conditions: for IC50: NB-4, 72 h
[8] = tested on: HL-60; assay: Antiproliferative activity against human HL-60 cells incubated for 3 days by CCK8 assay; format: functional, cell-based; conditions: for IC50: HL-60, 72 h
[9] = tested on: THP-1; assay: Antiproliferative activity against human THP-1 cells incubated for 3 days by CCK8 assay; format: functional, cell-based; conditions: for IC50: THP-1, 72 h
[10] = tested on: SU-DHL-1; assay: Antiproliferative activity against human SU-DHL-1 cells incubated for 3 days by CCK8 assay; format: functional, cell-based; conditions: SU-DHL-1, 72 h
[11] = tested on: Daudi; assay: Antiproliferative activity against human Daudi cells incubated for 3 days by CCK8 assay; format: functional, cell-based; conditions: 72 h
[12] = target: Protein cereblon/Eukaryotic peptide chain release factor GTP-binding subunit ERF3A (Homo sapiens, UniProt Q96SW2+P15170); assay: PROTAC activity at CRBN/GSPT1 in human MOLM-13 cells assessed as GSPT1 degradation at 100 nM incubated for 6 hrs by Western blot analysis; format: cell-based
Chain of Protein cereblon/Eukaryotic peptide chain release factor GTP-binding subunit ERF3A (P15170 whole entry, looked up): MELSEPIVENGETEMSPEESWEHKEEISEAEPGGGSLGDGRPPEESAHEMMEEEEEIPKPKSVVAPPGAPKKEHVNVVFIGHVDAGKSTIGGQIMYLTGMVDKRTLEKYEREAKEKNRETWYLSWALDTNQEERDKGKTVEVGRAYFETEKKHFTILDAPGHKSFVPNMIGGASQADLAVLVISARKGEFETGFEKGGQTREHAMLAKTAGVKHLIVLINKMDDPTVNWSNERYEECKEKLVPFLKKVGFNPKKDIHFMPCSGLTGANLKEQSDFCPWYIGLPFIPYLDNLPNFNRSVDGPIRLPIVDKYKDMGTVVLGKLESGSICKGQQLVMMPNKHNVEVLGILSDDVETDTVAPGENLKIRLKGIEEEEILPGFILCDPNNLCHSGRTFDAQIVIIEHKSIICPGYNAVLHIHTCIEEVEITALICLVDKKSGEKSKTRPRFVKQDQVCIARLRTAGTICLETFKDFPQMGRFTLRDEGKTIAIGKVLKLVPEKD
Chain of Protein cereblon/Eukaryotic peptide chain release factor GTP-binding subunit ERF3A (Q96SW2 whole entry, looked up): as the sequence (Q96SW2 whole entry, looked up, other chains not shown) above

[13] = target: T1, Protein cereblon/Bromodomain-containing protein 4; assay: PROTAC activity at CRBN/BRD4 in human MOLM-13 cells assessed as BRD4 degradation at 100 nM incubated for 6 hrs by Western blot analysis; format: cell-based
[14] = Toxicity in IL2Rg-null NSG mouse xenografted with human MOLM-13 cells expressing GFP-Fluc assessed as hemolysis measured after 48 hrs
[15] = Toxicity in IL2Rg-null NSG mouse xenografted with human MOLM-13 cells expressing GFP-Fluc assessed as animal death measured after 48 hrs
[16] = target: T2, Protein cereblon/Eukaryotic peptide chain release factor GTP-binding subunit ERF3A (Mus musculus) (UniProt Q8C7D2+Q8R050); assay: PROTAC activity at CRBN/GSPT1 in mouse A9 cells assessed as fold increase in translational readthrough activity at 0.8 to 20 uM incubated for 48 hrs by Western blot analysis relative to control; format: cell-based; conditions: dose 0.8-20 µM
T2 sequence (Q8C7D2 whole entry, looked up): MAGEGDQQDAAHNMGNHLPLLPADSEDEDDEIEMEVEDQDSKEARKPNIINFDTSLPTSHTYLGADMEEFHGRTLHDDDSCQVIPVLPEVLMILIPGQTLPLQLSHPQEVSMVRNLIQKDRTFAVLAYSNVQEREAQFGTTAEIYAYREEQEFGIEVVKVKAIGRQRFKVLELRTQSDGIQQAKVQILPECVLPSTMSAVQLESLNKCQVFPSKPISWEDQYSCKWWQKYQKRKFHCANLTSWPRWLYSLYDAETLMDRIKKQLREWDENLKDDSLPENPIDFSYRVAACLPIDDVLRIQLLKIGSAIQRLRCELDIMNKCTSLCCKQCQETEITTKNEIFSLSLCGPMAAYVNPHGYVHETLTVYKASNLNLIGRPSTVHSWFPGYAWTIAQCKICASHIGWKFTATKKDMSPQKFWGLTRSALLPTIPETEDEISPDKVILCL
T2 sequence (Q8R050 whole entry, looked up): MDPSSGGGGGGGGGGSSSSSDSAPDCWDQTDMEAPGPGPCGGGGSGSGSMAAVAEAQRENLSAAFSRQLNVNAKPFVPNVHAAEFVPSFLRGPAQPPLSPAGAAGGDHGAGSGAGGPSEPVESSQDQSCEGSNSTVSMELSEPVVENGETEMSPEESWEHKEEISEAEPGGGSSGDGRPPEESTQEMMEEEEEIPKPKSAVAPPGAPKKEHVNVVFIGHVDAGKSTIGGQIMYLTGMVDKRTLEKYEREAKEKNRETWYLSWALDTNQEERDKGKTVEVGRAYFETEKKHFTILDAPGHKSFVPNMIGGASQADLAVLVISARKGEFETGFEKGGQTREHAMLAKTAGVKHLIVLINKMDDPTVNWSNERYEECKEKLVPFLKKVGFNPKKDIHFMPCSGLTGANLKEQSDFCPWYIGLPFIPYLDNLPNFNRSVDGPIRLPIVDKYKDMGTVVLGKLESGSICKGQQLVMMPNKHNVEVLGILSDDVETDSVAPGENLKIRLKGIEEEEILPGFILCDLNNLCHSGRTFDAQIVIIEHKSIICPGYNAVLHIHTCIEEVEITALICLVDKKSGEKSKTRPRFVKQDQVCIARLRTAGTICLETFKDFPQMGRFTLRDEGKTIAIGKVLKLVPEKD

[17] = target: T2, Protein cereblon/Eukaryotic peptide chain release factor GTP-binding subunit ERF3A (Mus musculus); assay: PROTAC activity at CRBN/GSPT1 in mouse A9 cells harboring pCDH-BSD-M6/pIRES-GFluc assessed as increase in translational readthrough activity at 0.8 to 20 uM incubated for 48 hrs by Western blot analysis; format: cell-based; conditions: dose 0.8-20 µM
[18] = target: T2, Protein cereblon/Eukaryotic peptide chain release factor GTP-binding subunit ERF3A (Mus musculus); assay: PROTAC activity at CRBN/GSPT1 in mouse A9 cells harboring pCDH-BSD-M6/pIRES-GFluc assessed as GSPT1 degradation at 0.8 to 20 uM incubated for 48 hrs by Western blot analysis; format: cell-based; conditions: dose 0.8-20 µM
[19] = tested on: A9; assay: Effect on eRF1 expression in mouse A9 cells harboring pCDH-BSD-M6/pIRES-GFluc at 0.8 to 20 uM incubated for 48 hrs by Western blot analysis; format: functional, cell-based; conditions: dose 0.8-20 µM

IC50 [1]	Activity [6]	Compound	viability at 0.1 µM [2]	IC50 ([3]; Homo sapiens, OCI-AML-3, 72 h)	IC50 [4]	IC50 ([5]; Homo sapiens, KARPAS-299, 72 h)	other results
74.2 nM	–	Cc1sc2c(c1C)C(c1ccc(Cl)cc1)=N[C@@H](CC(=O)N1CC(N3CCN(c4ccc5c(c4)C(=O)N(C4CCC(=O)NC4=O)C5=O)CC3)C1)c1nnc(C)n1-2 (some centres undefined)	9.49%	–	–	–	–
25.4 nM	–	Cc1sc2c(c1C)C(c1ccc(Cl)cc1)=N[C@@H](CC(=O)N1CCC(N3CCN(c4ccc5c(c4)C(=O)N(C4CCC(=O)NC4=O)C5=O)CC3)CC1)c1nnc(C)n1-2 (some centres undefined)	7.55%	–	–	–	–
422 nM	–	Cc1sc2c(c1C)C(c1ccc(Cl)cc1)=N[C@@H](CC(=O)NCCCCNc1cccc3c1C(=O)N(C1CCC(=O)NC1=O)C3=O)c1nnc(C)n1-2 (some centres undefined)	–	1210 nM	936 nM	7720 nM	–
37.2 nM	Active	Cc1sc2c(c1C)C(c1ccc(Cl)cc1)=N[C@@H](CC(=O)N1CCN(C3CCN(c4cccc5c4C(=O)N(C4CCC(=O)NC4=O)C5=O)CC3)CC1)c1nnc(C)n1-2 (some centres undefined)	19.3%	–	–	–	–
46.6 nM	Active	Cc1sc2c(c1C)C(c1ccc(Cl)cc1)=N[C@@H](CC(=O)N1CCN(CC3CCN(c4cccc5c4C(=O)N(C4CCC(=O)NC4=O)C5=O)CC3)CC1)c1nnc(C)n1-2 (some centres undefined)	18%	–	–	–	–

Further lines, the compound ahead of its results:

Compound	IC50 [1]	Activity [6]	viability at 0.1 µM [2]	IC50 ([3]; Homo sapiens, OCI-AML-3, 72 h)	IC50 [4]	IC50 ([5]; Homo sapiens, KARPAS-299, 72 h)	other results
O=C1CCC(N2Cc3cc(CNC(=O)C(F)(F)c4ccc(Cl)cc4)ccc3C2=O)C(=O)N1 (centres undefined)	181 nM	Active	–	> 10000 nM	> 10000 nM	> 10000 nM	–
Cc1sc2c(c1C)C(c1ccc(Cl)cc1)=N[C@@H](CC(=O)N1CC(CN3CCN(c4ccc5c(c4)C(=O)N(C4CCC(=O)NC4=O)C5=O)CC3)C1)c1nnc(C)n1-2 (some centres undefined)	33.8 nM	Active	7.45%	–	–	–	–
Cc1sc2c(c1C)C(c1ccc(Cl)cc1)=N[C@@H](CC(=O)N1CCN(C3CCN(c4ccc5c(c4)C(=O)N(C4CCC(=O)NC4=O)C5=O)CC3)CC1)c1nnc(C)n1-2 (some centres undefined)	6.07 nM	Active	6.8%	17.3 nM	13.9 nM	20.6 nM	IC50 [7]: 4.26 nM; IC50 [8]: 7.38 nM; IC50 [9]: 16.4 nM; IC50 [10]: 11.1 nM; IC50 [11]: 10.2 nM; Activity [12]: Active; Activity [13]: Active; Activity [14]: Toxic; Activity [15]: Toxic
Cc1sc2c(c1C)C(c1ccc(Cl)cc1)=N[C@@H](CC(=O)N1CCC(CN3CCN(c4ccc5c(c4)C(=O)N(C4CCC(=O)NC4=O)C5=O)CC3)CC1)c1nnc(C)n1-2 (some centres undefined)	61.4 nM	–	15.5%	–	–	–	–
Cc1sc2c(c1C)C(c1ccc(Cl)cc1)=N[C@@H](CC(=O)N1CC(CN3CCN(c4cccc5c4C(=O)N(C4CCC(=O)NC4=O)C5=O)CC3)C1)c1nnc(C)n1-2 (some centres undefined)	–	–	110%	–	–	–	–
Cc1sc2c(c1C)C(c1ccc(Cl)cc1)=N[C@@H](CC(=O)N1CCN(C3CN(c4cccc5c4C(=O)N(C4CCC(=O)NC4=O)C5=O)C3)CC1)c1nnc(C)n1-2 (some centres undefined)	–	–	66.2%	–	–	–	–
Cc1sc2c(c1C)C(c1ccc(Cl)cc1)=N[C@@H](CC(=O)NCCNc1cccc3c1C(=O)N(C1CCC(=O)NC1=O)C3=O)c1nnc(C)n1-2 (some centres undefined)	150 nM	Active	–	325 nM	183 nM	820 nM	fold change (FC) [16]: 7; Activity [17]: Active; Activity [18]: Active; Activity [19]: No effect; IC50 [7]: 92.6 nM; Activity ([7]; time 3.0 day): Active; Activity ([1]; time 3.0 day): Active; IC50 [8]: 343 nM; Activity ([8]; time 3.0 day): Active; IC50 ([3]; oci-aml-3): 381 nM; Activity ([3]; time 3.0 day): Active; IC50 [9]: 553 nM; Activity ([9]; time 3.0 day): Active; IC50 ([5]; karpas-299): 913 nM; IC50 [10]: 195 nM; IC50 [11]: 266 nM
Cc1sc2c(c1C)C(c1ccc(Cl)cc1)=N[C@@H](CC(=O)N1CC(N3CCN(c4cccc5c4C(=O)N(C4CCC(=O)NC4=O)C5=O)CC3)C1)c1nnc(C)n1-2 (some centres undefined)	–	–	124%	–	–	–	–
Cc1sc2c(c1C)C(c1ccc(Cl)cc1)=N[C@@H](CC(=O)N1CCN(C3CN(c4ccc5c(c4)C(=O)N(C4CCC(=O)NC4=O)C5=O)C3)CC1)c1nnc(C)n1-2 (some centres undefined)	18.7 nM	Active	7.24%	–	–	–	–
Cc1sc2c(c1C)C(c1ccc(Cl)cc1)=N[C@@H](CC(=O)N1CCC(N3CCN(c4cccc5c4C(=O)N(C4CCC(=O)NC4=O)C5=O)CC3)CC1)c1nnc(C)n1-2 (some centres undefined)	–	–	72%	–	–	–	–
Cc1sc2c(c1C)C(c1ccc(Cl)cc1)=N[C@@H](CC(=O)N1CCN(CC3CN(c4cccc5c4C(=O)N(C4CCC(=O)NC4=O)C5=O)C3)CC1)c1nnc(C)n1-2 (some centres undefined)	14.9 nM	Active	11.7%	75.3 nM	605 nM	3360 nM	IC50 [7]: 19.2 nM; IC50 [8]: 63.7 nM; IC50 [9]: 103 nM; IC50 [10]: 117 nM; IC50 [11]: 257 nM; Activity [12]: Active; Activity [13]: Active
Cc1sc2c(c1C)C(c1ccc(Cl)cc1)=N[C@@H](CC(=O)N1CCC(CN3CCN(c4cccc5c4C(=O)N(C4CCC(=O)NC4=O)C5=O)CC3)CC1)c1nnc(C)n1-2 (some centres undefined)	–	–	79.6%	–	–	–	–
Cc1sc2c(c1C)C(c1ccc(Cl)cc1)=N[C@@H](CC(=O)N1CCN(CC3CN(c4ccc5c(c4)C(=O)N(C4CCC(=O)NC4=O)C5=O)C3)CC1)c1nnc(C)n1-2 (some centres undefined)	13.5 nM	Active	8.1%	27.7 nM	82.1 nM	330 nM	IC50 [7]: 6.03 nM; IC50 [8]: 19.1 nM; IC50 [9]: 32 nM; IC50 [10]: 35 nM; IC50 [11]: 178 nM; Activity [12]: Active; Activity [13]: Active
